From ChEMBL document CHEMBL1153688, “Design, synthesis, and pharmacological evaluation of dual histamine H2 and gastrin receptor antagonists” (Bioorg Med Chem Lett, 1996)

The molecules below were run against Cholecystokinin receptor (Mus musculus) (UniProt O08786+P56481) (assay: Ratio of IC50(gastrin) to IC50(CCK-A)). Conditions: not given.
Assay type: protein assay

| Compound | Ratio |
| --- | --- |
| Cc1cccc(NC(=O)NC2N=C(c3cccc(OCC(=O)NCCC(=O)NCCSCc4csc(N=C(N)N)n4)c3)c3ccccc3N(C)C2=O)c1 (stereo not given) | 80 |
| Cc1cccc(NC(=O)NC2N=C(c3cccc(OCC(=O)NCCCC(=O)NCCCOc4cccc(CN5CCCCC5)c4)c3)c3ccccc3N(C)C2=O)c1 (stereo not given) | 157 |
| Cc1cccc(NC(=O)NC2N=C(c3cccc(OCC(=O)NCCSCc4csc(N=C(N)N)n4)c3)c3ccccc3N(C)C2=O)c1 (stereo not given) | 40 |
| CN1C(=O)[C@H](NC(=O)Nc2cccc(CC(=O)NCCCCCC(=O)NCCSCc3csc(N=C(N)N)n3)c2)N=C(c2ccccc2)c2ccccc21 | 4.2 |
| Cc1cccc(NC(=O)NC2N=C(c3ccccc3)c3ccccc3N(CC(=O)NCCCOc3cccc(CN4CCCCC4)c3)C2=O)c1 (stereo not given) | 36.8 |
| Cc1cccc(NC(=O)NC2N=C(c3ccccc3)c3ccccc3N(CC(=O)NCCCC(=O)NCCSCc3csc(N=C(N)N)n3)C2=O)c1 (stereo not given) | 3.8 |
| CN1C(=O)[C@H](NC(=O)Nc2cccc(CC(=O)NCCCOc3cccc(CN4CCCCC4)c3)c2)N=C(c2ccccc2)c2ccccc21 | 17.8 |
| CN1C(=O)[C@H](NC(=O)Nc2cccc(C(=O)NCCSCc3csc(N=C(N)N)n3)c2)N=C(c2ccccc2)c2ccccc21 | 1 |
| Cc1cccc(NC(=O)NC2N=C(c3ccccc3)c3ccccc3N(CC(=O)NCCSCc3csc(N=C(N)N)n3)C2=O)c1 (stereo not given) | 1600 |

The next lines start with the values.

| Ratio | Compound |
| --- | --- |
| 16.1 | Cc1cccc(NC(=O)NC2N=C(c3cccc(OCC(=O)NCCCOc4cccc(CN5CCCCC5)c4)c3)c3ccccc3N(C)C2=O)c1 (stereo not given) |
| 7 | Cc1cccc(NC(=O)NC2N=C(c3ccccc3)c3ccccc3N(CC(=O)NCCC(=O)NCCCOc3cccc(CN4CCCCC4)c3)C2=O)c1 (stereo not given) |
| 1.5 | CN1C(=O)[C@H](NC(=O)Nc2cccc(CC(=O)NCCC(=O)NCCSCc3csc(N=C(N)N)n3)c2)N=C(c2ccccc2)c2ccccc21 |
| 0.5 | Cc1cccc(NC(=O)NC2N=C(c3ccccc3)c3ccccc3N(CC(=O)NCC(=O)NCCCOc3cccc(CN4CCCCC4)c3)C2=O)c1 (stereo not given) |
| 1.4 | CN1C(=O)[C@H](NC(=O)Nc2cccc(CC(=O)NCCC(=O)NCCCOc3cccc(CN4CCCCC4)c3)c2)N=C(c2ccccc2)c2ccccc21 |
| 4.3 | Cc1cccc(NC(=O)NC2N=C(c3ccccc3)c3ccccc3N(CC(=O)NCCCC(=O)NCCCOc3cccc(CN4CCCCC4)c3)C2=O)c1 (stereo not given) |

The molecules below were run against T1, Gastrin/cholecystokinin type B receptor (Mus musculus, UniProt P56481) (assay: Inhibitory activity against Cholecystokinin type B receptor). Conditions: not given.
T1 sequence (P56481 whole entry): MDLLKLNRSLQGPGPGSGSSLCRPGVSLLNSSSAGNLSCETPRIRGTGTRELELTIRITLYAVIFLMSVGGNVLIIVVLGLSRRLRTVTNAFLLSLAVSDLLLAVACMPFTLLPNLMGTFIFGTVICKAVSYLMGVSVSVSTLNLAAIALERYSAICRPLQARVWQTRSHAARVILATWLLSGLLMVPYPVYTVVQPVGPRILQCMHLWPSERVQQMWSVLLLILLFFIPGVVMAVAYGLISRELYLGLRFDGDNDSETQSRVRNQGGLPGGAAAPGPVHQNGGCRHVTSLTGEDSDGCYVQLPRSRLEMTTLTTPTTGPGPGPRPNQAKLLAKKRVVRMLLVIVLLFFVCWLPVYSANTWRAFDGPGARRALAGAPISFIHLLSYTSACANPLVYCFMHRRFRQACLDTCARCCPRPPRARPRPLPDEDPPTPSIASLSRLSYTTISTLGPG

| Compound | IC50 |
| --- | --- |
| Cc1cccc(NC(=O)NC2N=C(c3cccc(OCC(=O)NCCC(=O)NCCSCc4csc(N=C(N)N)n4)c3)c3ccccc3N(C)C2=O)c1 (stereo not given) | 400 nM |
| Cc1cccc(NC(=O)NC2N=C(c3cccc(OCC(=O)NCCCC(=O)NCCCOc4cccc(CN5CCCCC5)c4)c3)c3ccccc3N(C)C2=O)c1 (stereo not given) | 290 nM |
| Cc1cccc(NC(=O)NC2N=C(c3cccc(OCC(=O)NCCSCc4csc(N=C(N)N)n4)c3)c3ccccc3N(C)C2=O)c1 (stereo not given) | 350 nM |
| CN1C(=O)[C@H](NC(=O)Nc2cccc(CC(=O)NCCCCCC(=O)NCCSCc3csc(N=C(N)N)n3)c2)N=C(c2ccccc2)c2ccccc21 | 255 nM |
| Cc1cccc(NC(=O)NC2N=C(c3ccccc3)c3ccccc3N(CC(=O)NCCCOc3cccc(CN4CCCCC4)c3)C2=O)c1 (stereo not given) | 540 nM |
| Cc1cccc(NC(=O)NC2N=C(c3ccccc3)c3ccccc3N(CC(=O)NCCCC(=O)NCCSCc3csc(N=C(N)N)n3)C2=O)c1 (stereo not given) | 6600 nM |
| CN1C(=O)[C@H](NC(=O)Nc2cccc(CC(=O)NCCCOc3cccc(CN4CCCCC4)c3)c2)N=C(c2ccccc2)c2ccccc21 | 160 nM |
| CN1C(=O)[C@H](NC(=O)Nc2cccc(C(=O)NCCSCc3csc(N=C(N)N)n3)c2)N=C(c2ccccc2)c2ccccc21 | 440 nM |
| Cc1cccc(NC(=O)NC2N=C(c3ccccc3)c3ccccc3N(CC(=O)NCCSCc3csc(N=C(N)N)n3)C2=O)c1 (stereo not given) | 35 nM |

The next lines start with the values.

| IC50 | Compound |
| --- | --- |
| 1700 nM | Cc1cccc(NC(=O)NC2N=C(c3cccc(OCC(=O)NCCCOc4cccc(CN5CCCCC5)c4)c3)c3ccccc3N(C)C2=O)c1 (stereo not given) |
| 2150 nM | Cc1cccc(NC(=O)NC2N=C(c3ccccc3)c3ccccc3N(CC(=O)NCCC(=O)NCCCOc3cccc(CN4CCCCC4)c3)C2=O)c1 (stereo not given) |
| 200 nM | CN1C(=O)[C@H](NC(=O)Nc2cccc(CC(=O)NCCC(=O)NCCSCc3csc(N=C(N)N)n3)c2)N=C(c2ccccc2)c2ccccc21 |
| 3600 nM | Cc1cccc(NC(=O)NC2N=C(c3ccccc3)c3ccccc3N(CC(=O)NCC(=O)NCCCOc3cccc(CN4CCCCC4)c3)C2=O)c1 (stereo not given) |
| 290 nM | CN1C(=O)[C@H](NC(=O)Nc2cccc(CC(=O)NCCC(=O)NCCCOc3cccc(CN4CCCCC4)c3)c2)N=C(c2ccccc2)c2ccccc21 |
| 5000 nM | Cc1cccc(NC(=O)NC2N=C(c3ccccc3)c3ccccc3N(CC(=O)NCCCC(=O)NCCCOc3cccc(CN4CCCCC4)c3)C2=O)c1 (stereo not given) |

What follows are molecules tested against T2, Cholecystokinin receptor type A (Mus musculus, UniProt O08786) (assay: Inhibitory activity against Cholecystokinin type A receptor). Conditions: not given.
T2 sequence (O08786 whole entry): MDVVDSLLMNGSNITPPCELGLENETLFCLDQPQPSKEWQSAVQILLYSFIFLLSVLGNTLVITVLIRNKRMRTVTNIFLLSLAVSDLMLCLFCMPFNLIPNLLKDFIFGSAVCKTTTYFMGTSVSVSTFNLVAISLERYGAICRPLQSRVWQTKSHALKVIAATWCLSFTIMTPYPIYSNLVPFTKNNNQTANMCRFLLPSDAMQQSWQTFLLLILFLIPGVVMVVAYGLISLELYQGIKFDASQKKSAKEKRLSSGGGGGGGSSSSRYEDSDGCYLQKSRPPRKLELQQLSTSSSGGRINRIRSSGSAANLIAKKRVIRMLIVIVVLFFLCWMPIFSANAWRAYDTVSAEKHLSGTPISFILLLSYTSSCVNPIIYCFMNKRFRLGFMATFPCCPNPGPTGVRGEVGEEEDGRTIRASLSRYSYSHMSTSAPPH

| Compound | IC50 |
| --- | --- |
| Cc1cccc(NC(=O)NC2N=C(c3cccc(OCC(=O)NCCC(=O)NCCSCc4csc(N=C(N)N)n4)c3)c3ccccc3N(C)C2=O)c1 (stereo not given) | 2000 nM |
| Cc1cccc(NC(=O)NC2N=C(c3cccc(OCC(=O)NCCCC(=O)NCCCOc4cccc(CN5CCCCC5)c4)c3)c3ccccc3N(C)C2=O)c1 (stereo not given) | 9400 nM |
| Cc1cccc(NC(=O)NC2N=C(c3cccc(OCC(=O)NCCSCc4csc(N=C(N)N)n4)c3)c3ccccc3N(C)C2=O)c1 (stereo not given) | 5400 nM |
| CN1C(=O)[C@H](NC(=O)Nc2cccc(CC(=O)NCCCCCC(=O)NCCSCc3csc(N=C(N)N)n3)c2)N=C(c2ccccc2)c2ccccc21 | 190 nM |
| Cc1cccc(NC(=O)NC2N=C(c3ccccc3)c3ccccc3N(CC(=O)NCCCOc3cccc(CN4CCCCC4)c3)C2=O)c1 (stereo not given) | 5700 nM |
| Cc1cccc(NC(=O)NC2N=C(c3ccccc3)c3ccccc3N(CC(=O)NCCCC(=O)NCCSCc3csc(N=C(N)N)n3)C2=O)c1 (stereo not given) | 720 nM |
| CN1C(=O)[C@H](NC(=O)Nc2cccc(CC(=O)NCCCOc3cccc(CN4CCCCC4)c3)c2)N=C(c2ccccc2)c2ccccc21 | 4100 nM |
| CN1C(=O)[C@H](NC(=O)Nc2cccc(C(=O)NCCSCc3csc(N=C(N)N)n3)c2)N=C(c2ccccc2)c2ccccc21 | 380 nM |
| Cc1cccc(NC(=O)NC2N=C(c3ccccc3)c3ccccc3N(CC(=O)NCCSCc3csc(N=C(N)N)n3)C2=O)c1 (stereo not given) | 4800 nM |

The next lines start with the values.

| IC50 | Compound |
| --- | --- |
| 9200 nM | Cc1cccc(NC(=O)NC2N=C(c3cccc(OCC(=O)NCCCOc4cccc(CN5CCCCC5)c4)c3)c3ccccc3N(C)C2=O)c1 (stereo not given) |
| 1300 nM | Cc1cccc(NC(=O)NC2N=C(c3ccccc3)c3ccccc3N(CC(=O)NCCC(=O)NCCCOc3cccc(CN4CCCCC4)c3)C2=O)c1 (stereo not given) |
| 120 nM | CN1C(=O)[C@H](NC(=O)Nc2cccc(CC(=O)NCCC(=O)NCCSCc3csc(N=C(N)N)n3)c2)N=C(c2ccccc2)c2ccccc21 |
| 430 nM | Cc1cccc(NC(=O)NC2N=C(c3ccccc3)c3ccccc3N(CC(=O)NCC(=O)NCCCOc3cccc(CN4CCCCC4)c3)C2=O)c1 (stereo not given) |
| 190 nM | CN1C(=O)[C@H](NC(=O)Nc2cccc(CC(=O)NCCC(=O)NCCCOc3cccc(CN4CCCCC4)c3)c2)N=C(c2ccccc2)c2ccccc21 |
| 900 nM | Cc1cccc(NC(=O)NC2N=C(c3ccccc3)c3ccccc3N(CC(=O)NCCCC(=O)NCCCOc3cccc(CN4CCCCC4)c3)C2=O)c1 (stereo not given) |

Each molecule was assayed against Histamine H2 receptor (Rattus norvegicus, UniProt P25102) (assay: Antagonistic activity for inhibition of histamine H2 receptor from anesthetized rats). Conditions: read-out: pA2 (converted).
Chain of Histamine H2 receptor (P25102 whole entry): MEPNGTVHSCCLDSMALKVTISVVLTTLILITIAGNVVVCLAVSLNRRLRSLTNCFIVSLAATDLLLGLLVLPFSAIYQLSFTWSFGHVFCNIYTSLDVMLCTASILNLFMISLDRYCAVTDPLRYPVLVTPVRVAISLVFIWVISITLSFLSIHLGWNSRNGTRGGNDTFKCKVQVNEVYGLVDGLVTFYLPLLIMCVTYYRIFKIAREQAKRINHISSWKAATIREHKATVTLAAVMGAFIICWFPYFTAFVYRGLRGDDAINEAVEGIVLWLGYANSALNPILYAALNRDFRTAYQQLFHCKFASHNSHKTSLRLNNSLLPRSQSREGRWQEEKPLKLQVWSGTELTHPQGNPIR
Assay type: functional

| Compound | Kb |
| --- | --- |
| Cc1cccc(NC(=O)NC2N=C(c3cccc(OCC(=O)NCCC(=O)NCCSCc4csc(N=C(N)N)n4)c3)c3ccccc3N(C)C2=O)c1 (stereo not given) | 794 nM |
| Cc1cccc(NC(=O)NC2N=C(c3cccc(OCC(=O)NCCCC(=O)NCCCOc4cccc(CN5CCCCC5)c4)c3)c3ccccc3N(C)C2=O)c1 (stereo not given) | 316 nM |
| Cc1cccc(NC(=O)NC2N=C(c3cccc(OCC(=O)NCCSCc4csc(N=C(N)N)n4)c3)c3ccccc3N(C)C2=O)c1 (stereo not given) | 5010 nM |
| CN1C(=O)[C@H](NC(=O)Nc2cccc(CC(=O)NCCCCCC(=O)NCCSCc3csc(N=C(N)N)n3)c2)N=C(c2ccccc2)c2ccccc21 | 1000 nM |
| Cc1cccc(NC(=O)NC2N=C(c3ccccc3)c3ccccc3N(CC(=O)NCCCOc3cccc(CN4CCCCC4)c3)C2=O)c1 (stereo not given) | > 10000 nM |
| Cc1cccc(NC(=O)NC2N=C(c3ccccc3)c3ccccc3N(CC(=O)NCCCC(=O)NCCSCc3csc(N=C(N)N)n3)C2=O)c1 (stereo not given) | 3160 nM |
| CN1C(=O)[C@H](NC(=O)Nc2cccc(CC(=O)NCCCOc3cccc(CN4CCCCC4)c3)c2)N=C(c2ccccc2)c2ccccc21 | > 10000 nM |
| CN1C(=O)[C@H](NC(=O)Nc2cccc(C(=O)NCCSCc3csc(N=C(N)N)n3)c2)N=C(c2ccccc2)c2ccccc21 | > 10000 nM |
| Cc1cccc(NC(=O)NC2N=C(c3ccccc3)c3ccccc3N(CC(=O)NCCSCc3csc(N=C(N)N)n3)C2=O)c1 (stereo not given) | > 10000 nM |

The next lines start with the values.

| Kb | Compound |
| --- | --- |
| 5010 nM | Cc1cccc(NC(=O)NC2N=C(c3cccc(OCC(=O)NCCCOc4cccc(CN5CCCCC5)c4)c3)c3ccccc3N(C)C2=O)c1 (stereo not given) |
| 794 nM | Cc1cccc(NC(=O)NC2N=C(c3ccccc3)c3ccccc3N(CC(=O)NCCC(=O)NCCCOc3cccc(CN4CCCCC4)c3)C2=O)c1 (stereo not given) |
| 398 nM | CN1C(=O)[C@H](NC(=O)Nc2cccc(CC(=O)NCCC(=O)NCCSCc3csc(N=C(N)N)n3)c2)N=C(c2ccccc2)c2ccccc21 |
| 6310 nM | Cc1cccc(NC(=O)NC2N=C(c3ccccc3)c3ccccc3N(CC(=O)NCC(=O)NCCCOc3cccc(CN4CCCCC4)c3)C2=O)c1 (stereo not given) |
| 251 nM | CN1C(=O)[C@H](NC(=O)Nc2cccc(CC(=O)NCCC(=O)NCCCOc3cccc(CN4CCCCC4)c3)c2)N=C(c2ccccc2)c2ccccc21 |
| 794 nM | Cc1cccc(NC(=O)NC2N=C(c3ccccc3)c3ccccc3N(CC(=O)NCCCC(=O)NCCCOc3cccc(CN4CCCCC4)c3)C2=O)c1 (stereo not given) |
